“Also recorded” adds a separate entry of the source.
Columns and labels:
T4 DNA ligase = target: T1, T4 DNA ligase (Enterobacteria phage T4, UniProt P00970); experiment: Ligation assay, T4 DNA ligase control; format: biochemical; conditions: 5 μM
T1 sequence (P00970 1-487): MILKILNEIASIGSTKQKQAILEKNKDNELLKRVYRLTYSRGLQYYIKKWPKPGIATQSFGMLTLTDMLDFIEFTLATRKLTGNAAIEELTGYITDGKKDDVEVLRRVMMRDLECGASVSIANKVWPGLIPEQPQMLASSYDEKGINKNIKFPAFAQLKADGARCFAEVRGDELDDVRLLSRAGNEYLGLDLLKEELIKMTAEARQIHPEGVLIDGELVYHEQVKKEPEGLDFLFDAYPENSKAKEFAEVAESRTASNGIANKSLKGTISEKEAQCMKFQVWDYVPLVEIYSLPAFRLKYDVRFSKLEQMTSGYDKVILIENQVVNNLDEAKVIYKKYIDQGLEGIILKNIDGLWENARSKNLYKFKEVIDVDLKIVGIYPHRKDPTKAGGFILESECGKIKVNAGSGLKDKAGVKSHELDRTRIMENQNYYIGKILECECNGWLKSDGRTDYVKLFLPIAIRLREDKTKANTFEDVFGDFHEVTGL
From the text: (§1) The ligation assay was done strictly following the assay protocol described in Xi Chen et. al, Cancer Res 2008; 68(9):3169-3177. The DNA molecules 52 mer (5′-3′), 28-mer (5′-3′) and 34-mer (5′-3′) were used to construct a double stranded nicked substrate for the ligase enzyme (FIG. 4). The 34-mer oligo was labelled with 32P-AMP to form a substrate for ligase and to form a ligase-AMP intermediate. During ligation, the ligase would transfer the AMP to the nick forming a phosphodiester bond and seal the nick. The ligated DNA molecule would be larger in size and run higher up on a 7% Urea-containing denaturing acrylamide gel. If an inhibitor is added to the reaction mixture prior to the addition of ligase, this would lead to an inhibition of ligation and a corresponding loss of labelled ligated product in the gel. We would then be able to calculate the percentage of inhibition of ligation by estimating the amount of ligated product in the lane with no inhibitor and comparing it with the lanes containing different inhibitor molecules or with the same inhibitor molecule at different concentrations.

[1] = system: HepG2 (hepatocellular carcinoma); experiment: MTT assay for cell viability, HepG2; format: cell-based, human
Method: (§2) The human cancer cell lines e.g. HepG2 (hepatocellular carcinoma, ATCC® HB-8065™), PC-3 (human prostate cancer cells, ATCC® CRL-1435™), MCF-7 (breast adenocarcinoma, ATCC® […]), and mouse embryo fibroblasts (NIH/3T3, ATCC® CRL-1658™), used in the present study were obtained from the ATCC (American Type Culture Collection, USA and maintained in RPMI 1640 (Roswell Park Memorial Institute, Merck) with 10% FBS (Merck), supplemented with 1% antibiotic and antimycotic solution (Gibco, USA) at 37° C. in a humidified incubator with 5% CO2. All stock solutions of the compounds were prepared in cell culture grade DMSO (dimethyl sulfoxide) and stored at −20° C. Compounds were diluted in culture media prior to use in experiments. Annexin V-FITC apoptosis detection kits were purchased from Calbiochem. MTT dye was procured from Sigma-Aldrich. All the flow cytometry experiments were performed using a FACScan (Becton Dickinson, Mountain View, Calif.) flow cytometer, equipped with a single 488 nm argon laser.
(§3) Cell viability was assessed by MTT assay, which is based on the reduction of MTT by mitochondrial dehydrogenases of viable cells to form a purple formazan product. Briefly, cells (5-6×10^3/well) were plated in 96 well plates. After incubating overnight, the cells were treated with […] different concentrations (100, 50, 20, 10, 5, 2.5, 1.25 μM) in triplicates with the cationic lipidated cordiarimide and intermediates for 48 h. Subsequently, 10 μL of MTT (10 mg/mL) was added to each well and incubated for 3 h. The MTT formazan formed by viable cells was dissolved in 100 μL of DMSO and shaken for 10 min. The absorbance was measured on an ELISA reader. Each test was repeated at least three times. The concentration of the compound which gives the 50% growth inhibition value corresponding to IC50, was calculated using GraphPad prism 5 software. In the present invention we have screened 26 lipidated cordiarimides and the results are described in table 1.

[2] = system: linearized plasmid pUC18 DNA; experiment: DNA intercalation assay; format: binding; conditions: up to 100 μM, compared to doxorubicin
Method: Since there are multiple modes of inhibition of ligase activity, we wanted to determine whether 8k inhibited ligation by direct inhibition alone or through other means as well such as DNA intercalation. DNA intercalation assay was performed as described by Furlan et al., Biotechnol. Lett. 2002, 24, 1807-1813. We incubated 100 ng of linearized plasmid pUC18 DNA with increasing concentrations (50, 100, 200 μM) of Doxorubicin (positive control), ampicillin (negative control), and 8k for 30 minutes at 37° C. Reaction products were resolved on a 1% agarose gel at 5.3 V/cm. Gel was visualized by ethidium bromide staining.

ligase IV = ligase IV (Homo sapiens, UniProt P49917); experiment: Ligation assay, DNA ligase IV; format: biochemical
Chain of ligase IV (P49917 whole entry): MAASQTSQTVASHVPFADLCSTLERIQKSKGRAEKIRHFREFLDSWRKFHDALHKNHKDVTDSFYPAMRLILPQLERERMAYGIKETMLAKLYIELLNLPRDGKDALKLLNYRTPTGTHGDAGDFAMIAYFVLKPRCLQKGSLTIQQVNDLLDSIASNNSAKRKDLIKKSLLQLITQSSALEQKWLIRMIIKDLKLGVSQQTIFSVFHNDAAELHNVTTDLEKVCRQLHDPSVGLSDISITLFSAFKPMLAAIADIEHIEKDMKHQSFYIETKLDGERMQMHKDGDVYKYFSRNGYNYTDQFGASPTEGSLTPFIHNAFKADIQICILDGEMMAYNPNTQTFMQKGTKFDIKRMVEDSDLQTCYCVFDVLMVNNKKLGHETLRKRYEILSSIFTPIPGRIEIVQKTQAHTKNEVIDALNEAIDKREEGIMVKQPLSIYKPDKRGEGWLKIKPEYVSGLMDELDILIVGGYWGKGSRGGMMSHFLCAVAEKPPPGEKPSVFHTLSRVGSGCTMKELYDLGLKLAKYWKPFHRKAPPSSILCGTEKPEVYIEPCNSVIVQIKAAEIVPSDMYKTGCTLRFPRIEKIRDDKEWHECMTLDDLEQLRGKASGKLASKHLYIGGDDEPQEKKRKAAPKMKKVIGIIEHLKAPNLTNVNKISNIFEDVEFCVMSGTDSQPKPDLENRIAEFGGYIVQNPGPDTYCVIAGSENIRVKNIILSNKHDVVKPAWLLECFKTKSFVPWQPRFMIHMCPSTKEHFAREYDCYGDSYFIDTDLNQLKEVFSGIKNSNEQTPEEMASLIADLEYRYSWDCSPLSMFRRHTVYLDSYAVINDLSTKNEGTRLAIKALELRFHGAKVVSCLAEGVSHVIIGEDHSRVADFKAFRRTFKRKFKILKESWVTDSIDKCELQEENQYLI
Chain of ligase IV (Q13426 whole entry partner): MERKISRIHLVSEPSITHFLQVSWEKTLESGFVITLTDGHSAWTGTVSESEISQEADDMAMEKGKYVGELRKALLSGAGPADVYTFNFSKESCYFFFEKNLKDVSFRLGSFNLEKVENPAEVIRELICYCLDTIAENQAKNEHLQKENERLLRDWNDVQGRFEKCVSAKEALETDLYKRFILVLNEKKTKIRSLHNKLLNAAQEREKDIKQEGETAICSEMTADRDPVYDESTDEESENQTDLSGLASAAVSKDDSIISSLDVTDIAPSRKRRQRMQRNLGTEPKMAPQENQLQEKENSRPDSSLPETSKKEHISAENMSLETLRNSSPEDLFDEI
From the text: as §1

hLig1 = hLig1 (Homo sapiens, UniProt P18858); experiment: Kinetic analysis of ligation inhibition (Lineweaver-Burk); format: biochemical; conditions: 5 and 10 μM
Chain of hLig1 (P18858 whole entry): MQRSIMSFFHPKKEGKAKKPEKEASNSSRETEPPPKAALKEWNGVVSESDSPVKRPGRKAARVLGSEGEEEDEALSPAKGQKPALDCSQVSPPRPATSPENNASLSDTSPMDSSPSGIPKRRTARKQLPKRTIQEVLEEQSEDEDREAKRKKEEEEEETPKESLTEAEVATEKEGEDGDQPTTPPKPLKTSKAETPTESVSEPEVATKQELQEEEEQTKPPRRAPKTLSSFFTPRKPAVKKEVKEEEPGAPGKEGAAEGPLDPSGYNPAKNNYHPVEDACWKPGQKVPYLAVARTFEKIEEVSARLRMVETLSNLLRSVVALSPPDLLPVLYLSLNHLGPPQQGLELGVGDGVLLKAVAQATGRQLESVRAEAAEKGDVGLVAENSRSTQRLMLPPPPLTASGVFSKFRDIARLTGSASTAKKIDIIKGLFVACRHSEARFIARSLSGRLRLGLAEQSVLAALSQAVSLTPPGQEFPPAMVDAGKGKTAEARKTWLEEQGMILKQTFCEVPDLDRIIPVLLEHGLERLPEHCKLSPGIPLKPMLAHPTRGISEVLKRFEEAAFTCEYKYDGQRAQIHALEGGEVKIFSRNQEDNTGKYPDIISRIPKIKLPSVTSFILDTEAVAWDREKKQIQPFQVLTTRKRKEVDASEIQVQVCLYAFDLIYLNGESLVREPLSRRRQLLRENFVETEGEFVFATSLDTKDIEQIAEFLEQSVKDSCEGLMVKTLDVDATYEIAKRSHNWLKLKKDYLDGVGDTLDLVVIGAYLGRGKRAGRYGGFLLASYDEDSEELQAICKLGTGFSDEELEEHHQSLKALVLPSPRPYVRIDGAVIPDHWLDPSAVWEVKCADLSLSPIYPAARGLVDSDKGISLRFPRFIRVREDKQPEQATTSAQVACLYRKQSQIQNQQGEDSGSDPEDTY
Method: We measured the kinetics of hLig1 mediated ligation in the absence are presence of 8k at 5 and 10 μM concentrations and drew Lineweaver-Burk plots (FIG. 6B).

[3] = system: HepG2, NH/3T3, PC-3, MCF-7 cell lines; experiment: MTT assay, summary over the cell line panel; format: cell-based; conditions: across tested cell lines
Method: as §2, §3

human ligase I = human ligase I (Homo sapiens, UniProt P18858); experiment: Ligation assay, DNA ligase I; format: biochemical
Chain of human ligase I (P18858 whole entry): as above
From the text: as §1

[4] = system: MCF-7 (breast adenocarcinoma); experiment: MTT assay for cell viability, MCF-7; format: cell-based, human
Method: as §2, §3

[5] = system: mouse embryo fibroblasts (NIH/3T3); experiment: MTT assay for cell viability, NIH/3T3; format: cell-based; conditions: NIH3T3, 48 h
Method: as §2, §3

[6] = system: PC-3 (human prostate cancer cells); experiment: MTT assay for cell viability, PC-3; format: cell-based; conditions: 48 h
Method: as §2, §3

With `CCCCCCCCCCCC[N+](C)(CCCCCCCCCCCC)CC(=O)NC1CCC(=O)N(CC(=O)c2ccccc2)C1=O` (stereo not shown) [Compound 8k, {[2,6-Dioxo-1-(2-oxo-2-phenyl-ethyl)-piperidin-3-ylcarbamoyl]-methyl}-Didodecyl-methyl-ammonium iodide] the “inhibition of T4 ligase” value (T4 DNA ligase) was “No appreciable inhibition”, the IC50 ([1]; 48 h) was 1.87 µM and the IC50 ([1]; Homo sapiens, HepG2, 48 h) was 1.8 µM. The DNA intercalation [2] was “no appreciable intercalation”, the “inhibition of ligase IV” value (ligase IV; 5 μM) was “No appreciable inhibition” and the “effect on ligase IV activity” value (ligase IV; even at higher concentrations) was “no effect”. For the same compound, the “mode of inhibition by enzyme kinetics” value (hLig1) was “un-competitively”, the “antiproliferative / anticancer activity (in words)” value [3] was “selective anti-proliferative activity at lower concentrations” and the inhibition at 1 µM (human ligase I; 1 μM) was about 50%. The “inhibition of ligase I activity” value (human ligase I; 10 μM) was “complete inhibition”, the “DNA ligase I / ligation inhibition (in words)” value (human ligase I; screening, FIG. 4 and FIG. 7) was “most prolific inhibitor of ligation; also recorded: inhibition of DNA ligase I activity; also recorded: showed inhibition of DNA ligation” and the IC50 ([4]; 48 h) was over 20 µM. It also gave an IC50 ([4]; Homo sapiens, MCF7, 48 h) of 26.3 µM, an IC50 [5] of over 20 µM and an IC50 [6] of 5.61 µM. The IC50 ([6]; Homo sapiens) was 5.6 µM.

Source: patent US10266564B2, “Cationic lipid cordiarimide hybrid compounds and a process for preparation thereof” (COUNCIL OF SCIENTIFIC & INDUSTRIAL RESEARCH, priority 2014, dated 2019)
